Test results as given in patent publication US9193736B2, “PDE 10a inhibitors for the treatment of type II diabetes” (Janssen Pharmaceutica, NV, priority 2013, dated 2015).
Counter-ions that a name gives are not always drawn.

Experiments:
[1] = PDE10a perfused brain permeability study: plasma concentrations at 30 and 120 min, brain concentration at 120 min, brain/plasma ratio; settings: male, Sprague-Dawley, rat; for Kp at 2 h: brain/plasma
Method: PDE10a-Brain Permeability Assay
A. PDE10a-Perfused Brain Permeability Study Protocol
Drug administration by oral gavage, subcutaneous injection or intravenous was carried out using male Sprague Dawley rats under IACUC protocol (SH-MET3010). Male Sprague Dawley rats (Charles River) ˜300-350 g were maintained on a 4% standard rodent diet (Test Diet 5001). They are allowed ad libitum access to water and food. Room temperature was maintained at 64° F. and humidity at 30-70%.
Three animals per compound were provided a dose of 2 mg/mL in 20% HpbCD/Tris pH 8 by tail i.v. or 30 mpk p.o. or s.c. in 20% HpbCD/Tris pH 8, with PDE10a antagonists. A first blood sample was collected at 30 min via retro-orbital sinus (anesthetic by 70% CO2/30% O2) into heparinzed plasma separator tubes. The blood was centrifuged and 100 μL plasma was placed into a 96 well plate and saved on dry ice.
After the 120 min, the final blood sample was collected via retro-orbital sinus under anesthesia by IP 0.5 cc injection of a 4/1 mixture of Ketaset: AnaSed [(prepared 10 mL Ketaset (100 mg/mL Ketamine)+2.5 mL AnaSed (20 mg/mL Xylazine)]. The rats were then perfused with 400 mL heparinized saline (10,000 units/L) through the left ventricle of the heart; the brains were then removed (not including the medulla), weighed and homogenized in PBS (4 mL/g tissue). The samples were stored at −80° C. and submitted for chemical analysis of blood and brain concentrations. Endpoints of sample analysis consists of the plasma concentrations at 30 and 120 min, plus brain concentrations at 120 min.

[2] = molecular target: Rat recombinant PDE10a (rPDE10a) (Rattus norvegicus (Rat), UniProt Q9QYJ6); assay: In vitro assay PDE10a: rat recombinant PDE10a SPA with 3H-cAMP substrate, IC50; type: biochemical; settings: 60 nM cAMP, read-out: rPDE10a2 IC50
Method in brief: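 Enzyme expressed in Sf9 cells via baculovirus and Ni-sepharose purified; reaction with 3H-cAMP ran 60 min at rt, stopped with PDE SPA beads. Compounds diluted in DMSO at 100-fold final concentration; blanks omitted enzyme.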

[3] = molecular target: Human recombinant PDE10A2 (Homo sapiens (Human), UniProt Q9Y233); assay: In vitro hPDE10a: human recombinant PDE10A2 scintillation proximity assay, IC50; type: biochemical; settings: human recombinant PDE10A2, SPA, 60 nM cAMP; read-out: hPDE10a2 IC50
Method in brief: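 Purified recombinant human PDE10A2 (Ni-sepharose) was assayed by SPA, counting [3H]-AMP product captured on yttrium silicate beads added in zinc sulphate stop solution. Inhibition was expressed as % of activity without compound, with a no-enzyme low control. Repeat data points were aggregated.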

Chain of Human recombinant PDE10A2 (Q9Y233 267-1055): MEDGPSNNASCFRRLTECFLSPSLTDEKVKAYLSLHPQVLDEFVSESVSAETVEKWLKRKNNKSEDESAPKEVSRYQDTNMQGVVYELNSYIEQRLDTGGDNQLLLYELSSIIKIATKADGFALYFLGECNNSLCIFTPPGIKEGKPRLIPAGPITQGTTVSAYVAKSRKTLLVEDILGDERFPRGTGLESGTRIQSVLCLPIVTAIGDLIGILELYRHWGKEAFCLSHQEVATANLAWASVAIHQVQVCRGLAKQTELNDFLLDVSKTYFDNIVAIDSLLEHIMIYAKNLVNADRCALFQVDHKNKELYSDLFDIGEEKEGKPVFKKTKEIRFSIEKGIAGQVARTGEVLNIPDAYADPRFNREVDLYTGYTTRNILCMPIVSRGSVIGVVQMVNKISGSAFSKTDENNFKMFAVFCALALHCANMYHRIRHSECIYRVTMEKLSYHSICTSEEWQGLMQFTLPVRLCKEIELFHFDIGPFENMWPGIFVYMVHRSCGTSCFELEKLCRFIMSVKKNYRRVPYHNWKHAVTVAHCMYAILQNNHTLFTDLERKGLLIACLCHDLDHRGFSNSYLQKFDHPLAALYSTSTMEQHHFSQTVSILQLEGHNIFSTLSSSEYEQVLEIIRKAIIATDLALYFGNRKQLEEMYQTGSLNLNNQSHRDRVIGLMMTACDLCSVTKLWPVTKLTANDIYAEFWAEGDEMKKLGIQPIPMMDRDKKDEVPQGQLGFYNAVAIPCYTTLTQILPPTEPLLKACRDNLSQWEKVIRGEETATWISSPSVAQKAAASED
Chain of Rat recombinant PDE10a (rPDE10a) (Q9QYJ6 whole entry): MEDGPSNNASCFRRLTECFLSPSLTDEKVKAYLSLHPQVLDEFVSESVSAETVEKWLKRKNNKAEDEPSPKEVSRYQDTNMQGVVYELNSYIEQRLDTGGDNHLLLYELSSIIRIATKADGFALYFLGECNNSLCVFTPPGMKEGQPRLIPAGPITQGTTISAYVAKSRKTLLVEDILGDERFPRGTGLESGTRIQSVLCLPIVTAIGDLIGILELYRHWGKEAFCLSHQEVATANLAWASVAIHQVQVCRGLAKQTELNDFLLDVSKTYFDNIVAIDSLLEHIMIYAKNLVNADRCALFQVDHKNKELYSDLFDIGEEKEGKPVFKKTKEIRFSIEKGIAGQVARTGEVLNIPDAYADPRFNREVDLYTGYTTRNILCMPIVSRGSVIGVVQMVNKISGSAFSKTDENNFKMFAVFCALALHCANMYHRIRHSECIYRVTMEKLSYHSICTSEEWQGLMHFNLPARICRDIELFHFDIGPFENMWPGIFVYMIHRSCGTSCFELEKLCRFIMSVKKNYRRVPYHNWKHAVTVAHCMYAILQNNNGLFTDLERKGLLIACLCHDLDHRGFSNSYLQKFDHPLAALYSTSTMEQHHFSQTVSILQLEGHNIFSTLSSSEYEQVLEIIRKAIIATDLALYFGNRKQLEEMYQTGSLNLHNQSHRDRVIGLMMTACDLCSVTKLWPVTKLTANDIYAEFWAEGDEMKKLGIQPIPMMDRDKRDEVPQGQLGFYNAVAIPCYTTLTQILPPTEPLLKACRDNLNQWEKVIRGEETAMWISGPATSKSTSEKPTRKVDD

Compound | concentration at 2 h ([1]; brain) [ng/g] | Kp at 2 h [1] | concentration at 2 h ([1]; plasma) [ng/mL] | IC50 [2] [nM] | IC50 [3] [nM]
O=c1[nH]c(-c2ccc(-c3c(/C=C/c4ccc5ccccc5n4)nc4c(N5CCOCC5)ccnn34)cc2)no1 [Cpd 102, (E)-3-(4-(8-Morpholino-2-(2-(quinolin-2-yl)vinyl)imidazo[1,2-b]pyridazin-3-yl)phenyl)-1,2,4-oxadiazol-5(4H)-one] | 0 | 0 | 155 | 5 | 4
CS(=O)(=O)NC(=O)c1ccc(-c2c(/C=C/c3ccc4ccccc4n3)nc3c(N4CCOCC4)ccnn23)cc1F [compound 134, (E)-2-Fluoro-N-(methylsulfonyl)-4-(8-morpholino-2-(2-(quinolin-2-yl)vinyl)imidazo[1,2-b]pyridazin-3-yl)benzamide] | 0 | 0 | 926 | 7 | 4
O=C(O)CNc1ccc(-c2c(C#Cc3ccc4ccccc4n3)nc3c(N4CCOCC4)ccnn23)cn1 [Cpd 24, 2-(5-(8-Morpholino-2-(2-(quinolin-2-yl)ethynyl)imidazo[1,2-b]pyridazin-3-yl)pyridin-2-ylamino)acetic acid trifluoroacetic acid salt] | 1.35 | 0.2 | 5.37 | 1 | 1
CS(=O)(=O)NC(=O)c1ccc(-c2c(C#Cc3ccc4ccccc4n3)nc3c(N4CCOCC4)ccnn23)cn1 [Cpd 28, N-(Methylsulfonyl)-5-(8-morpholino-2-(quinolin-2-ylethynyl)imidazo[1,2-b]pyridazin-3-yl)picolinamide] | 0.95 | 0.01 | 136 | 1 | 1
O=C(O)CNc1ccc(-c2c(/C=C/c3ccc4ccccc4n3)nc3c(N4CCOCC4)ccnn23)cn1 [Cpd 17, (E)-2-(5-(8-Morpholino-2-(2-(quinolin-2-yl)vinyl)imidazo[1,2-b]pyridazin-3-yl)pyridin-2-ylamino)acetic acid] | 0 | 0 | 15.7 | 2 | 3
Oc1nc(O)c(-c2ccc(-c3c(/C=C/c4ccc5ccccc5n4)nc4c(N5CCOCC5)ccnn34)cc2)o1 [Cpd 65, 5-(4-{8-Morpholin-4-yl-2-[(E)-2-quinolin-2-ylethenyl]imidazo[1,2-b]pyridazin-3-yl}phenyl)-1,3-oxazole-2,4-diol] | 14.5 | 0.01 | 1610 | 8 | 10
Cn1nc(-c2ccc(-c3c(/C=C/c4ccc5ccccc5n4)nc4c(N5CCOCC5)ccnn34)cc2)nc1O [Cpd 74, (E)-2-Methyl-5-(4-(8-morpholino-2-(2-(quinolin-2-yl)vinyl)imidazo[1,2-b]pyridazin-3-yl)phenyl)-2H-1,2,4-triazol-3-ol] | 34.7 | 0.04 | 857 | 13 | 13
O=C(O)C1CCN(c2ccc(-c3c(/C=C/c4ccc5ccccc5n4)nc4c(N5CCOCC5)ccnn34)cc2)CC1 [Cpd 100, (E)-1-(4-(8-Morpholino-2-(2-(quinolin-2-yl)vinyl)imidazo[1,2-b]pyridazin-3-yl)phenyl)piperidine-4-carboxylic acid trifluoroacetic acid salt] | 60.7 | 0.02 | 2840 | 6 | 3
COc1cc(-c2c(/C=C/c3ccc4ccccc4n3)nc3c(N4CCOCC4)ccnn23)ccc1C(=O)O [compound 67, (E)-2-Methoxy-4-(8-morpholino-2-(2-(quinolin-2-yl)vinyl)imidazo[1,2-b]pyridazin-3-yl)benzoic acid] | 16.9 | 0.02 | 725 | 5 | 22
O=C(O)c1cccc(-c2c(/C=C/c3ccc4ccccc4n3)nc3c(N4CCOCC4)ccnn23)c1 [Cpd 124, (E)-3-(8-Morpholino-2-(2-(quinolin-2-yl)vinyl)imidazo[1,2-b]pyridazin-3-yl)benzoic acid] | 0 | 0 | 86.6 | 9 | 4
NS(=O)(=O)N1CCN(c2ccc(-c3c(CSc4ccc5ccccc5n4)nc4c(N5CCOCC5)ccnn34)cn2)CC1 [Cpd 20, 4-(5-(8-Morpholino-2-((quinolin-2-ylthio)methyl)imidazo[1,2-b]pyridazin-3-yl)pyridin-2-yl)piperazine-1-sulfonamide] | 152 | 0.31 | 492 | 2 | 18
c1ccc2nc(SCc3nc4c(N5CCOCC5)ccnn4c3-c3ccc(N4CCNCC4)nc3)ccc2c1 [Cpd 6, 4-(3-(6-(piperazin-1-yl)pyridin-3-yl)-2-((quinolin-2-ylthio)methyl)imidazo[1,2-b]pyridazin-8-yl)morpholine trifluoroacetic acid salt] | 52 | 0.39 | 135 | 25 | 20
Oc1ncn(-c2ccc(-c3c(/C=C/c4ccc5ccccc5n4)nc4c(N5CCOCC5)ccnn34)cc2)n1 [Cpd 54, (E)-1-(4-(8-Morpholino-2-(2-(quinolin-2-yl)vinyl)imidazo[1,2-b]pyridazin-3-yl)phenyl)-1H-1,2,4-triazol-3-ol trifluoroacetic acid salt] | 0 | 0 | 23 | 11 | 7
CS(=O)(=O)NC(=O)c1ccc(-c2c(/C=C/c3ccc4ccccc4n3)nc3c(N4CCOCC4)ccnn23)cc1 [compound 39, (E)-N-(Methylsulfonyl)-4-(8-morpholino-2-(2-(quinolin-2-yl)vinyl)imidazo[1,2-b]pyridazin-3-yl)benzamide] | 0 | 0 | 147 | 3 | 5
OC(c1ccc(-c2c(/C=C/c3ccc4ccccc4n3)nc3c(N4CCOCC4)ccnn23)cc1)(C(F)(F)F)C(F)(F)F [compound 52, (E)-1,1,1,3,3,3-Hexafluoro-2-(4-(8-morpholino-2-(2-(quinolin-2-yl)vinyl)imidazo[1,2-b]pyridazin-3-yl)phenyl)propan-2-ol] | 54 | 0.16 | 326 | 41 | 52
O=C(O)CCc1ccc(-c2c(/C=C/c3ccc4ccccc4n3)nc3c(N4CCOCC4)ccnn23)cc1 [Cpd 128, 3-(4-{8-Morpholin-4-yl-2-[(E)-2-quinolin-2-ylethenyl]imidazo[1,2-b]pyridazin-3-yl}phenyl)propanoic acid] | 0 | 0 | 314 | 5 | 5
CC(=O)NS(=O)(=O)c1ccc(-c2c(CCc3ccc4ccccc4n3)nc3c(N4CCOCC4)ccnn23)cc1 [compound 42, N-((4-(8-Morpholino-2-(2-(quinolin-2-yl)ethyl)imidazo[1,2-b]pyridazin-3-yl)phenyl)sulfonyl)acetamide] | 0 | 0 | 34 | 1 | 1
O=C(O)c1ccc(-c2c(/C=C/c3ccc4ccccc4n3)nc3c(N4CCOCC4)ccnn23)cc1 [compound 40, (E)-4-(8-Morpholino-2-(2-(quinolin-2-yl)vinyl)imidazo[1,2-b]pyridazin-3-yl)benzoic acid trifluoroacetic acid salt] | 0 | 0 | 499 | 2 | 2
CS(=O)(=O)NC(=O)c1ccc(-c2c(C#Cc3ccc4ccccc4n3)nc3c(N4CCOCC4)ccnn23)cc1 [compound 83, N-(Methylsulfonyl)-4-(8-morpholino-2-(quinolin-2-ylethynyl)imidazo[1,2-b]pyridazin-3-yl)benzamide] | 0 | 0 | 205 | 1 | 1
O=C(O)c1ccc(-c2c(CCc3ccc4ccccc4n3)nc3c(N4CCOCC4)ccnn23)cc1 [compound 41, 4-(8-Morpholino-2-(2-(quinolin-2-yl)ethyl)imidazo[1,2-b]pyridazin-3-yl)benzoic acid] | 0 | 0 | 38 | 1 | 1
O=C(O)c1ccc(-c2c(/C=C/c3ccc4c(n3)CCCC4)nc3c(N4CCOCC4)ccnn23)cc1 [Cpd 76, (E)-4-(8-Morpholino-2-(2-(5,6,7,8-tetrahydroquinolin-2-yl)vinyl)imidazo[1,2-b]pyridazin-3-yl)benzoic acid] | 9.3 | 0.02 | 568 | 7 | 5
O=C(Nc1nc2c(N3CCOCC3)ccnn2c1-c1ccc(N2CCNCC2)nc1)c1ccc2ccccc2n1 [Cpd 8, N-(8-Morpholino-3-(6-(piperazin-1-yl)pyridin-3-yl)imidazo[1,2-b]pyridazin-2-yl)quinoline-2-carboxamide trifluoroacetic acid salt] | 38.8 | 1.16 | 33.7 | 813 | 603
